Laboratory results reported in patent US8293294B2, “Cosmetic composition comprising an aqueous extract of Chrysophyllum cainito” (Laboratories Clarins, priority 2008, dated 2012).

Tested on: CML (carboxymethyl adducts of lysine) induced by glyoxal
Experiment: Inhibition of glyoxal-induced CML formation in cultured human dermal fibroblasts (immunofluorescence)
Type: cell-based
Details: aminoguanidine 10 mM, positive reference, fibroblasts with 200 μM glyoxal for 7 days
Description: It is a question of evaluating the inhibitory activity of the extract of Chrysophyllum cainito with respect to CML (carboxymethyl adducts of lysine) induced by glyoxal as well as its protective effect on vimentin, the target of formation of the CMLs, in a culture of human dermal fibroblasts.
Normal adult human fibroblasts were cultivated at 37° C. and 5% CO2 on a cover slip in a Petri dish of diameter 60 at a rate of 30000 cells per cover slip. The incubation medium is DMEM medium (Dulbecco modified Eagle medium) supplemented with 10% fetal calf serum and penicillin/streptomycin (50 μg/ml). […]
The cells were washed with PBS (phosphate-buffered saline) and permeabilized with 0.1% Triton X-100 for 10 minutes. […] Before taking the reading, 4 rinsings with PBS are performed.
The cover slips are mounted on the glass slide and then examined with the fluorescence microscope (Nikon Eclipse 50i). […] The photomicrographs are analyzed using Lucia image analysis software. The FITC fluorescence images indicate the regions of localization of vimentin. The TRITC fluorescence images indicate the regions of localization of CML. The DAPI fluorescence images indicate the cell nuclei and therefore the number of cells per field (see FIGS. 1 to 4).
This intensity of fluorescence is shown relative to the number of cells per micrograph. […]

N=C(N)NN [Aminoguanidine]
inhibition of the formation of carboxymethyl adducts of lysine (CML), intensity of labeling: completely inhibits
inhibition of the formation of carboxymethyl adducts of lysine (CML), intensity of labeling (listed as aminoguanidine): completely inhibited
